Test results from ChEMBL document CHEMBL3885861, “Open TG-GATES”.

Organism: Rattus norvegicus
Experiment: Open TG-GATES - Regimen: Daily Repeat
Assay type: toxicity, organism-based, Sprague-Dawley
Parameters: regimen Daily Repeat, gender Male, age 6 weeks
Conditions: in vivo, po, 1000 mg/kg, route gavage, dose level High; for APTT / Bas / Eos / Fbg / Hb / Ht / Lym / MCH / MCHC / MCV / Mono / Neu / PT / Plat / RBC / Ret / WBC: tissue Blood; for KIDNEY_L / KIDNEY_R / KIDNEY_TOTAL: tissue Kidney; for LIVER: tissue Liver; for A/G / ALP / ALT / AST / BUN / CRE / Ca / Cl / DBIL / GLC / IP / K / LDH / Na / PL / RALB / TBIL / TC / TG / TP / gamma-GTP: tissue Plasma

CC(=O)[C@@]1(O)CC[C@H]2[C@@H]3C=C(Cl)C4=CC(=O)CC[C@]4(C)[C@H]3CC[C@@]21C [CHLORMADINONE]
TERMINAL_BW (72 h, time 3 day): 236.9 g
APTT (72 h, time 3 day): 28 s
Bas (72 h, time 3 day): 0%
Eos (72 h, time 3 day): 1.2%
Fbg (72 h, time 3 day): 321.4 mg/dL
Hb (72 h, time 3 day): 13.9 g/dL
Ht (72 h, time 3 day): 42%
Lym (72 h, time 3 day): 76.8%
MCH (72 h, time 3 day): 20.2 pg
MCHC (72 h, time 3 day): 33.1%
MCV (72 h, time 3 day): 61 fL
Mono (72 h, time 3 day): 3%
Neu (72 h, time 3 day): 18.2%
PT (72 h, time 3 day): 14.4 s
Plat (72 h, time 3 day): 126.4 x10_4/uL
RBC (72 h, time 3 day): 690 x10_4/ul
Ret (72 h, time 3 day): 6.9%
WBC (72 h, time 3 day): 122 x10_2/uL
KIDNEY_L (72 h, time 3 day): 1 g
KIDNEY_R (72 h, time 3 day): 1 g
KIDNEY_TOTAL (72 h, time 3 day): 2 g
LIVER (72 h, time 3 day): 12.4 g
A/G (72 h, time 3 day): 1.2
ALP (72 h, time 3 day): 1434.6 IU/L
ALT (72 h, time 3 day): 53 IU/L
AST (72 h, time 3 day): 71 IU/L
BUN (72 h, time 3 day): 17.4 mg/dL
CRE (72 h, time 3 day): 0.2 mg/dL
Ca (72 h, time 3 day): 11 mg/dL
Cl (72 h, time 3 day): 105.2 meq/L
DBIL (72 h, time 3 day): 0 mg/dL
GLC (72 h, time 3 day): 191.8 mg/dL
IP (72 h, time 3 day): 7.7 mg/dL
K (72 h, time 3 day): 4.8 meq/L
LDH (72 h, time 3 day): 190.2 IU/L
Na (72 h, time 3 day): 140.4 meq/L
PL (72 h, time 3 day): 198.4 mg/dL
RALB (72 h, time 3 day): 3.3 g/dL
TBIL (72 h, time 3 day): 0.004 mg/dL
TC (72 h, time 3 day): 95.2 mg/dL
TG (72 h, time 3 day): 154.2 mg/dL
TP (72 h, time 3 day): 6 g/dL
gamma-GTP (72 h, time 3 day): 2 IU/L
TERMINAL_BW ([…], time 7 day): 245 g
TERMINAL_BW ([…], time 14 day): 286.4 g
TERMINAL_BW ([…], time 28 day): 342.2 g
APTT ([…], time 7 day): 30 s
Bas ([…], time 7 day): 0%
Eos ([…], time 7 day): 0.8%
Fbg ([…], time 7 day): 327.6 mg/dL
Hb ([…], time 7 day): 15.1 g/dL
Ht ([…], time 7 day): 44.5%
Lym ([…], time 7 day): 84.4%
MCH ([…], time 7 day): 20.2 pg
MCHC ([…], time 7 day): 34%
MCV ([…], time 7 day): 59.5 fL
Mono ([…], time 7 day): 2.2%
Neu ([…], time 7 day): 11.8%
PT ([…], time 7 day): 15 s
Plat ([…], time 7 day): 127.9 x10_4/uL
RBC ([…], time 7 day): 748.8 x10_4/ul
Ret ([…], time 7 day): 3.8%
WBC ([…], time 7 day): 120.3 x10_2/uL
APTT ([…], time 14 day): 28.9 s
Bas ([…], time 14 day): 0%
Eos ([…], time 14 day): 1%
Fbg ([…], time 14 day): 322 mg/dL
Hb ([…], time 14 day): 15.2 g/dL
Ht ([…], time 14 day): 45%
Lym ([…], time 14 day): 80%
MCH ([…], time 14 day): 19.7 pg
MCHC ([…], time 14 day): 33.9%
MCV ([…], time 14 day): 58.1 fL
Mono ([…], time 14 day): 2.8%
Neu ([…], time 14 day): 14.4%
PT ([…], time 14 day): 14.7 s
Plat ([…], time 14 day): 100.3 x10_4/uL
RBC ([…], time 14 day): 774.6 x10_4/ul
Ret ([…], time 14 day): 2.6%
WBC ([…], time 14 day): 106.2 x10_2/uL
APTT ([…], time 28 day): 29.7 s
Bas ([…], time 28 day): 0%
Eos ([…], time 28 day): 1%
Fbg ([…], time 28 day): 308 mg/dL
Hb ([…], time 28 day): 15.8 g/dL
Ht ([…], time 28 day): 45.5%
Lym ([…], time 28 day): 86.4%
MCH ([…], time 28 day): 18.2 pg
MCHC ([…], time 28 day): 34.9%
MCV ([…], time 28 day): 52.1 fL
Mono ([…], time 28 day): 2.2%
Neu ([…], time 28 day): 9.6%
PT ([…], time 28 day): 15.1 s
Plat ([…], time 28 day): 91.7 x10_4/uL
RBC ([…], time 28 day): 873 x10_4/ul
Ret ([…], time 28 day): 1.9%
WBC ([…], time 28 day): 94.9 x10_2/uL
KIDNEY_L ([…], time 7 day): 1 g
KIDNEY_R ([…], time 7 day): 1 g
KIDNEY_TOTAL ([…], time 7 day): 1.9 g
KIDNEY_L ([…], time 14 day): 1.1 g
KIDNEY_R ([…], time 14 day): 1.1 g
KIDNEY_TOTAL ([…], time 14 day): 2.2 g
KIDNEY_L ([…], time 28 day): 1.2 g
KIDNEY_R ([…], time 28 day): 1.3 g
KIDNEY_TOTAL ([…], time 28 day): 2.5 g
LIVER ([…], time 7 day): 11 g
LIVER ([…], time 14 day): 13.1 g
LIVER ([…], time 28 day): 14.6 g
A/G ([…], time 7 day): 1.3
ALP ([…], time 7 day): 1456.8 IU/L
ALT ([…], time 7 day): 45.8 IU/L
AST ([…], time 7 day): 71.4 IU/L
BUN ([…], time 7 day): 19.6 mg/dL
CRE ([…], time 7 day): 0.2 mg/dL
Ca ([…], time 7 day): 10.8 mg/dL
Cl ([…], time 7 day): 106.8 meq/L
DBIL ([…], time 7 day): 0 mg/dL
GLC ([…], time 7 day): 187.2 mg/dL
IP ([…], time 7 day): 7.2 mg/dL
K ([…], time 7 day): 4.6 meq/L
LDH ([…], time 7 day): 194 IU/L
Na ([…], time 7 day): 140 meq/L
PL ([…], time 7 day): 163.8 mg/dL
RALB ([…], time 7 day): 3.3 g/dL
TBIL ([…], time 7 day): 0.006 mg/dL
TC ([…], time 7 day): 83.2 mg/dL
TG ([…], time 7 day): 136 mg/dL
TP ([…], time 7 day): 6 g/dL
gamma-GTP ([…], time 7 day): 2 IU/L
A/G ([…], time 14 day): 1.2
ALP ([…], time 14 day): 1187.6 IU/L
ALT ([…], time 14 day): 45.2 IU/L
AST ([…], time 14 day): 71.2 IU/L
BUN ([…], time 14 day): 18.6 mg/dL
CRE ([…], time 14 day): 0.2 mg/dL
Ca ([…], time 14 day): 10.7 mg/dL
Cl ([…], time 14 day): 107.6 meq/L
DBIL ([…], time 14 day): 0 mg/dL
GLC ([…], time 14 day): 195 mg/dL
IP ([…], time 14 day): 6.8 mg/dL
K ([…], time 14 day): 4.4 meq/L
LDH ([…], time 14 day): 160.8 IU/L
Na ([…], time 14 day): 142 meq/L
PL ([…], time 14 day): 171.2 mg/dL
RALB ([…], time 14 day): 3.3 g/dL
TBIL ([…], time 14 day): 0.004 mg/dL
TC ([…], time 14 day): 81.2 mg/dL
TG ([…], time 14 day): 177.4 mg/dL
TP ([…], time 14 day): 6.1 g/dL
gamma-GTP ([…], time 14 day): 2 IU/L
A/G ([…], time 28 day): 1
ALP ([…], time 28 day): 1076 IU/L
ALT ([…], time 28 day): 58.4 IU/L
AST ([…], time 28 day): 70.8 IU/L
BUN ([…], time 28 day): 17.4 mg/dL
CRE ([…], time 28 day): 0.2 mg/dL
Ca ([…], time 28 day): 10.5 mg/dL
Cl ([…], time 28 day): 105.2 meq/L
DBIL ([…], time 28 day): 0 mg/dL
GLC ([…], time 28 day): 194.8 mg/dL
IP ([…], time 28 day): 6.1 mg/dL
K ([…], time 28 day): 3.9 meq/L
LDH ([…], time 28 day): 156 IU/L
Na ([…], time 28 day): 142 meq/L
PL ([…], time 28 day): 190.4 mg/dL
RALB ([…], time 28 day): 3.4 g/dL
TBIL ([…], time 28 day): 0.006 mg/dL
TC ([…], time 28 day): 97.6 mg/dL
TG ([…], time 28 day): 161.6 mg/dL
TP ([…], time 28 day): 6.6 g/dL
gamma-GTP ([…], time 28 day): 2.6 IU/L
